Source: patent US20220098203A1 (priority 2018, published 2022)

molecular target: T1, MAT2A homodimer (Homo sapiens, UniProt P31153); experiment: MAT2A biochemical assay (liberated phosphate, PiColorLock Gold); conditions: Table 5a; MAT2A biochemical assay; read-out: Enzyme Inhibition
T1 construct: inferred from the Ni sepharose purification and imidazole elution; made in house; host or cells: SF9 insect cells, recombinant baculovirus (Bac to Bac, pFASTBAC1)
Description: Mat2A protein was expressed by recombinant baculovirus in SF9 infected cells using the Bac to Bac system cloned into the pFASTBAC1 vector (Invitrogen, Carlsbad, Calif.). Recombinant MAT2A was isolated from the cell lysate of 150 g of infected cells using HP Ni sepharose column chromatography. Recombinant MAT2A homodimer was eluted with 250 and 500 mM imidazole, and fractions containing MAT2A were identified by sodium dodecyl sulfate polyacrylamide gel electrophoresis and pooled.
Test compound was prepared in 100% dimethyl sulfoxide (DMSO) at 50× the desired final concentration. A 1 μL volume of compound dilution was added to 40 μL of enzyme dilution and the mixture was allowed to equilibrate for 60 minutes at 25° C. The enzymatic assay was initiated by the addition of 10 μL of substrate mix (500 μM ATP, pH 7.0, 400 μM L-methionine in 1× assay buffer), and the mixture was incubated for a further 60 minutes at 25° C. The reaction was halted and the liberated phosphate released by the enzyme in stoichiometric amounts by the production of S-adenosyl methionine (SAM) was measured using the PiColorLock Gold kit (Innova Biosciences, UK). Absolute product amounts were determined by comparison to a standard curve of potassium phosphate buffer, pH 8.0.

T1 sequence (P31153 whole entry): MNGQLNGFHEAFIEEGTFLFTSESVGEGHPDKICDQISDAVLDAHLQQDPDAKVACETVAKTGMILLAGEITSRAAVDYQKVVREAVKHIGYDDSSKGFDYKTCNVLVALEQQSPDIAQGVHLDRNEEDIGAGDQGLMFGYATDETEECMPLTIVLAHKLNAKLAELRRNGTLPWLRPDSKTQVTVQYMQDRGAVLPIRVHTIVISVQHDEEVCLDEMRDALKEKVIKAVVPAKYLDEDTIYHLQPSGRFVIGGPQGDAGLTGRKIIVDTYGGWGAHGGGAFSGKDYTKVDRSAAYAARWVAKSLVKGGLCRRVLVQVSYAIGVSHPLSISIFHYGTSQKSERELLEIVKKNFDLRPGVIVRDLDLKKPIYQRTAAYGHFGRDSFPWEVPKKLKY

Compound | IC50
COc1ccc(N2Cc3cnc(NCC(F)(F)F)nc3N(c3ccc(C(N)=O)cc3)C2=O)cc1 [Example 276, 4-(3-(4-methoxyphenyl)-2-oxo-7-((2,2,2-trifluoroethyl)amino)-3,4-dihydropyrimido[4,5-d]pyrimidin-1(2H)-yl)benzamide] | 100 to 1000 nM
Cn1cc2cc(N3Cc4cnc(NCC(F)(F)F)nc4N(c4ccc(Cl)cc4)C3=O)ccc2n1 [Example 263, 1-(4-chlorophenyl)-3-(2-methyl-2H-indazol-5-yl)-7-((2,2,2-trifluoroethyl)amino)-3,4-dihydropyrimido[4,5-d]pyrimidin-2(1H)-one] | < 100 nM
COc1ccc(N2Cc3cnc(NCC(F)(F)F)nc3N(c3ccc(OC(F)F)nc3)C2=O)cc1 [Example 259] | 100 to 1000 nM
CCOc1ccc2c(n1)N(c1ccc(OC)cc1)C(=O)N(c1ccc(F)cc1)C2 [Example 117, 7-ethoxy-3-(4-fluorophenyl)-1-(4-methoxyphenyl)-3,4-dihydropyrido[2,3-d]pyrimidin-2(1H)-one] | 100 to 1000 nM
COC1CCC(N2C(=O)N(c3ccc4nn(C)cc4c3)Cc3ccc(OCC(F)F)nc32)CC1 (centres unmarked) [Example 427, 7-(2,2-difluoroethoxy)-1-(4-methoxycyclohexyl)-3-(2-methyl-2H-indazol-5-yl)-1H,2H,3H,4H-pyrido[2,3-d]pyrimidin-2-one] | 1000 to 10000 nM
CCOc1ccc2c(n1)N(c1ccc(OC)cc1)C(=O)N(c1cncs1)C2 [Example 127, ethoxy-1-(4-methoxyphenyl)-3-(thiazol-5-yl)-3,4-dihydropyrido[2,3-d]pyrimidin-2(1H)-one] | 100 to 1000 nM
O=C1N(c2ccc3nccn3c2)Cc2cnc(NCC(F)(F)F)nc2N1c1ccc(-c2nc[nH]n2)cc1 [Example 222, 1-(4-(1H-1,2,4-triazol-3-yl)phenyl)-3-(imidazo[1,2-a]pyridin-6-yl)-7-((2,2,2-trifluoroethyl)amino)-3,4-dihydropyrimido[4,5-d]pyrimidin-2(1H)-one] | < 100 nM
COc1ccc(N2Cc3cnc(NCC(F)(F)F)nc3N([C@H]3CC[C@H](OC)CC3)C2=O)cc1 [Example 258] | 100 to 1000 nM
CCOc1ccc2c(n1)N(c1ccc(C)nc1)C(=O)N(c1ccc3nn(C)cc3c1)C2 [Example 151, 7-ethoxy-3-(2-methyl-2H-indazol-5-yl)-1-(6-methylpyridin-3-yl)-3,4-dihydropyrido[2,3-d]pyrimidin-2(1H)-one] | 100 to 1000 nM
COc1ccc(N2C(=O)N(c3ccc(OC)cn3)Cc3cnc(NCC(F)(F)F)nc32)cc1 [Example 238, 1-(4-methoxyphenyl)-3-(5-methoxypyridin-2-yl)-7-((2,2,2-trifluoroethyl)amino)-3,4-dihydropyrimido[4,5-d]pyrimidin-2(1H)-one] | 100 to 1000 nM
CNC(=O)c1ccc(N2C(=O)N(c3ccc(OC)cc3)Cc3cnc(NCC(F)(F)F)nc32)cc1 [Example 277, 4-(3-(4-methoxyphenyl)-2-oxo-7-((2,2,2-trifluoroethyl)amino)-3,4-dihydropyrimido[4,5-d]pyrimidin-1(2H)-yl)-N-methylbenzamide] | 1000 to 10000 nM
O=C1N(c2ccc3ncccc3c2)Cc2cnc(NCC(F)(F)F)nc2N1c1ccc(C2CC2)cc1 [Example 226, 1-(4-cyclopropylphenyl)-3-(quinolin-6-yl)-7-((2,2,2-trifluoroethyl)amino)-3,4-dihydropyrimido[4,5-d]pyrimidin-2(1H)-one] | < 100 nM
COc1ccc(N2C(=O)N(c3ccc4nn(C)cc4c3)Cc3ccc(N4CCCC4)nc32)cc1 [Example 158, 1-(4-methoxyphenyl)-3-(2-methyl-2H-indazol-5-yl)-7-(pyrrolidin-1-yl)-3,4-dihydropyrido[2,3-d]pyrimidin-2(1H)-one] | 100 to 1000 nM
Cn1cc2cc(N3Cc4cnc(OCC(F)(F)F)nc4N(c4ccc(-c5nc[nH]n5)cc4)C3=O)ccc2n1 [Example 191, 1-(4-(1H-1,2,4-triazol-3-yl)phenyl)-3-(2-methyl-2H-indazol-5-yl)-7-(2,2,2-trifluoroethoxy)-3,4-dihydropyrimido[4,5-d]pyrimidin-2(1H)-one] | < 100 nM
COc1ccc(N2Cc3cnc(NCC(F)(F)F)nc3N(c3ccc4nccn4c3)C2=O)cc1 [Example 260] | 1000 to 10000 nM

Other lines, results leading:

IC50 | Compound
100 to 1000 nM | COC(=O)c1ccc(N2C(=O)N(c3ccc(OC)cc3)Cc3cnc(NCC(F)(F)F)nc32)cc1 [Example 203, methyl 4-(3-(4-methoxyphenyl)-2-oxo-7-((2,2,2-trifluoroethyl)amino)-3,4-dihydropyrimido[4,5-d]pyrimidin-1(2H)-yl)benzoate]
100 to 1000 nM | [2H]C([2H])([2H])Oc1ccc(N2C(=O)N(c3ccc4nn(C)cc4c3)C(C)c3ccc(OCC(F)F)nc32)cc1 (centres unmarked) [Example 286, 7-(2,2-difluoroethoxy)-1-(4-(methoxy-d3)phenyl)-4-methyl-3-(2-methyl-2H-indazol-5-yl)-3,4-dihydropyrido[2,3-d]pyrimidin-2(1H)-one]
100 to 1000 nM | COc1ccc(N2Cc3cnc(NCC(F)(F)F)nc3N(c3ccc4ncccc4c3)C2=O)cc1 [Example 240]
100 to 1000 nM | COc1ccc(N2C(=O)N(c3ccc4nn(C)cc4c3)Cc3ccc(N4CCOCC4)nc32)cc1 [Example 157, 1-(4-methoxyphenyl)-3-(2-methyl-2H-indazol-5-yl)-7-morpholino-3,4-dihydropyrido[2,3-d]pyrimidin-2(1H)-one]
1000 to 10000 nM | COc1ccc(N2Cc3cnc(NCC(F)(F)F)nc3N(c3ccc(-c4ccsn4)cc3)C2=O)cc1 [Example 207, 1-(4-(isothiazol-3-yl)phenyl)-3-(4-methoxyphenyl)-7-((2,2,2-trifluoroethyl)amino)-3,4-dihydropyrimido[4,5-d]pyrimidin-2(1H)-one]
100 to 1000 nM | COc1ccc(N2Cc3cnc(NCC(F)(F)F)nc3N(c3ccc(-c4cscn4)cc3)C2=O)cc1 [Example 210, 3-(4-methoxyphenyl)-1-(4-(thiazol-4-yl)phenyl)-7-((2,2,2-trifluoroethyl)amino)-3,4-dihydropyrimido[4,5-d]pyrimidin-2(1H)-one]
< 100 nM | COc1ccc(N2Cc3cnc(NCC(F)(F)F)nc3N(c3cc4ccccc4s3)C2=O)cc1 [Example 200, 1-(benzo[b]thiophen-2-yl)-3-(4-methoxyphenyl)-7-((2,2,2-trifluoroethyl)amino)-3,4-dihydropyrimido[4,5-d]pyrimidin-2(1H)-one]
100 to 1000 nM | CCOc1ccc2c(n1)N(c1cnc(C(F)(F)F)nc1)C(=O)N(c1ccc3nn(C)cc3c1)C2 [Example 148, 7-ethoxy-3-(2-methyl-2H-indazol-5-yl)-1-(2-(trifluoromethyl)pyrimidin-5-yl)-3,4-dihydropyrido[2,3-d]pyrimidin-2(1H)-one]
100 to 1000 nM | COc1ccc(N2C(=O)N(c3ccc(OC)nc3)Cc3cnc(NCC(F)(F)F)nc32)cc1 [Example 239, 1-(4-methoxyphenyl)-3-(6-methoxypyridin-3-yl)-7-((2,2,2-trifluoroethyl)amino)-3,4-dihydropyrimido[4,5-d]pyrimidin-2(1H)-one]
1000 to 10000 nM | CCOc1ccc2c(n1)N(c1ccc(OC)cc1)C(=O)N(c1ccc(C#N)cc1)C2 [Example 116, 4-(7-ethoxy-1-(4-methoxyphenyl)-2-oxo-1,2-dihydropyrido[2,3-d]pyrimidin-3(4H)-yl)benzonitrile]
100 to 1000 nM | COc1ccc(N2C(=O)N(c3ccc4nn(C)cc4c3)Cc3ccc(N(C)C)nc32)cc1 [Example 160, 7-(dimethylamino)-1-(4-methoxyphenyl)-3-(2-methyl-2H-indazol-5-yl)-3,4-dihydropyrido[2,3-d]pyrimidin-2(1H)-one]
100 to 1000 nM | COc1ccc(N2Cc3cnc(NCC(F)(F)F)nc3N(c3ccc(O)cc3)C2=O)cc1 [Example 249, 1-(4-hydroxyphenyl)-3-(4-methoxyphenyl)-7-((2,2,2-trifluoroethyl)amino)-3,4-dihydropyrimido[4,5-d]pyrimidin-2(1H)-one]
< 100 nM | CCOc1ccc2c(n1)N(c1ccc(C(F)(F)F)nc1)C(=O)N(c1ccc3nn(C)cc3c1)C2 [Example 150]
< 100 nM | CCOc1ccc2c(n1)N(c1ccc(OC(F)F)cc1)C(=O)N(c1ccnc(OC)c1)C2 [Example 111, 1-(4-(difluoromethoxy)phenyl)-7-ethoxy-3-(2-methoxypyridin-4-yl)-3,4-dihydropyrido[2,3-d]pyrimidin-2(1H)-one]
100 to 1000 nM | COc1ccc(N2Cc3cnc(NCC(F)(F)F)nc3N(c3ccc(C4(O)CC4)cc3)C2=O)cc1 [Example 278, 1-(4-(1-hydroxycyclopropyl)phenyl)-3-(4-methoxyphenyl)-7-((2,2,2-trifluoroethyl)amino)-3,4-dihydropyrimido[4,5-d]pyrimidin-2(1H)-one]

same assay, conditions: Table 5b; Additional Examples; read-out: Enzyme Inhibition

Compound | IC50
COc1ccc(N2Cc3cnc(NCC(F)(F)F)nc3N(c3ccnnc3)C2=O)cc1 | > 10000 nM
COc1ccc(N2Cc3cnc(NCC4CC4)nc3N(c3ccccc3)C2=O)cc1 | > 10000 nM
COc1ccc(-n2c(=O)c3cnc(SC)nc3n(-c3ccc(OCc4ccccc4)cc3)c2=O)cc1 | > 10000 nM
COc1ccc(N2Cc3cnc(NCC(F)(F)F)nc3N(c3ncc(OC)cn3)C2=O)cc1 | > 10000 nM
COc1ccc(N2C(=O)N(c3ccc4nn(C)cc4c3)Cc3ccc(Nc4ccccc4)nc32)cc1 | > 10000 nM

Continued, values first:

IC50 | Compound
> 10000 nM | COc1ccc(N2Cc3cnc(NCC(F)(F)F)nc3N(c3ccc(-c4ccsc4)cc3)C2=O)cc1
> 10000 nM | COc1ccc(-n2c(=O)c3cnc(S(C)(=O)=O)nc3n(-c3ccc(OCc4ccccc4)cc3)c2=O)cc1
> 10000 nM | Cn1cc2cc(N3Cc4ccc(OCC(F)F)nc4NC3=O)ccc2n1
